Assay results from patent publication US8709434B2, “Compositions for inhibiting NADPH oxidase activity” (PCB Associates, Inc., priority 2006, dated 2014).

What was measured:
[1] = mice, concurrent administration; cited from earlier work
NADPH oxidase [2] = test: NADPH-induced superoxide production by cellular NADPH oxidase, lucigenin chemiluminescence, human aortic endothelial cells; format: cell-based; settings: for inhibition of NADPH oxidase superoxide production: 300 nM to 20 μM for 1 h
Description: (§1) Human cell cultures derived from aortic endothelium were incubated with NADPH to induce superoxide production by cellular NADPH oxidase. Superoxide production was quantified by lucigenin chemiluminescence. Lucigenin is a specific detector of superoxide. […] Phycocyanobilin (PCB, FIG. 1A) or biliverdin (BVD, FIG. 1B) were added to the NADPH-treated cell cultures in concentrations ranging from 300 nM to 20 μM. Biliverdin is another known inhibitor of NADPH oxidase.
(§2) Human aortic endothelial cells were purchased from Clonetics (East Rutherford, N.J.). The endothelial cell were cultured in endothelial cell basal medium (Clonetics) supplemented with hFGF-B, VEGF, IGF-1, ascorbic acid hEGF, hydrocortisone and 2% fetal calf serum. The cells from 2nd to 5th passages were used in the experiments. Cellular production of superoxide anion was determined by the lucigenin method. For the experiments, cells were detached with trypsin/EDTA and resuspended in modified HEPES buffer containing 140 mM NaCl, 5 mM KCl, 0.8 mM MgCl2, 1.8 mM CaCl2, 1 mM Na2HPO4, 25 mM HEPES, and 1% glucose (pH7.2), and incubated with or without various concentrations of phycocyanobilin (PCB) or biliverdin (BVD) from 300 nM to 20 μM for 1 h. Immediately before recording, NADPH (100 μM) and dark-adapted lucigenin (5 μM) were added to cell suspension. Light emission was recorded every minute for 20 min and was expressed as mean arbitrary light unit/min. Experiments were performed in triplicate. In experiments with inhibition of NAD(P)H oxidase, diphenylene iodonuim cloride (DPI, 10^−5 M), an inhibitor of NAD(P)H oxidase, was added 10 min before NADPH addition and recording of chemiluminescence. This is the first experiment to see the effect of purified phycocyanobilin on NADPH oxidase activity using human aortic endothelial cells.

[3] = oral administration, compared with bilirubin; cited from earlier work
[4] = compared with bilirubin; cited from earlier work
NADPH oxidase [5] = test: NADPH-induced superoxide production by cellular NADPH oxidase, lucigenin chemiluminescence, human aortic smooth muscle cells; format: cell-based; settings: for inhibition of NADPH oxidase superoxide production: 300 nM to 20 μM for 1 h
Description: as §1, with “smooth muscle” for “endothelium”, “2A)” for “1A)”, “2B)” for “1B)”
as §2, with “aortic smooth muscle” for “aortic endothelial”, “The smooth muscle cells” for “The endothelial cell”, “in a Smooth Muscle Cell Growth Medium” for “in endothelial cell basal medium”, “(Clonetics) containing 5%” for “(Clonetics) supplemented with hFGF-B, VEGF, IGF-1, ascorbic acid hEGF, hydrocortisone and 2%”

[6] = rats; cited from earlier work
NADPH oxidase [7] = test: NADPH-induced superoxide production by cellular NADPH oxidase, lucigenin chemiluminescence, human renal mesangial cells; format: cell-based; settings: for inhibition of NADPH oxidase superoxide production: 300 nM to 20 μM for 1 h
Description: as §1, with “renal mesangial tissue” for “aortic endothelium”, “3A)” for “1A)”, “3B)” for “1B)”
as §2, with “mesangial” for “aortic endothelial”, “[…] cells” for “endothelial cell”, “a Mesangial Cell Growth Medium” for “endothelial cell basal medium”, “containing 5%” for “supplemented with hFGF-B, VEGF, IGF-1, ascorbic acid hEGF, hydrocortisone and 2%”, “chemiluminescence.” for “chemiluminescence. This is the first experiment to see the effect of purified phycocyanobilin on NADPH oxidase activity using human aortic endothelial cells.”

[8] = feeding to cholesterol-fed hamsters; cited from earlier work
[9] = mice, oral pre-treatment; cited from earlier work
[10] = oral, mice and rats, dose range 50-300 mg/kg/day; cited from earlier work
[11] = DPI 10^−5 M added 10 min before NADPH (100 μM)

Compound: C=CC1=C(C)/C(=C/C2=NC(=C\c3[nH]c(/C=C4\NC(=O)C(C)=C4C=C)c(C)c3CCC(=O)O)/C(CCC(=O)O)=C2C)NC1=O [biliverdin]
- colitis induced with oral dextran sodium sulfate [1]: substantially ameliorated
- inhibition of NADPH oxidase superoxide production (NADPH oxidase [2]): dose-dependent inhibition
- bioavailability [3]: greater bioavailability than bilirubin
- solubility [4]: far more soluble than bilirubin
- inhibition of NADPH oxidase superoxide production (NADPH oxidase [5]): dose-dependent inhibition
- ischemia-reperfusion damage of transplanted organs [6]: ameliorates the ischemia-reperfusion damage
- rejection of cardiac or renal allografts [6]: helps to prevent the rejection
- inhibition of NADPH oxidase superoxide production (NADPH oxidase [7]): dose-dependent inhibition

Compound: phycocyanobilin
- inhibition of NADPH oxidase superoxide production (NADPH oxidase [2]): dose-dependent inhibition
- inhibitory effect on NADPH oxidase activity compared with DPI (NADPH oxidase [2]; 20 μM): equivalent to that of DPI
- inhibition of NADPH oxidase superoxide production (NADPH oxidase [5]): dose-dependent inhibition
- inhibitory effect on NADPH oxidase activity compared with DPI (NADPH oxidase [5]; 20 μM): equivalent to that of DPI
- inhibition of NADPH oxidase superoxide production (NADPH oxidase [7]): dose-dependent inhibition
- inhibitory effect on NADPH oxidase activity compared with DPI (NADPH oxidase [7]; 20 μM): less than that of DPI, but was statistically significant

Compound: phycocyanin
- production of arterial fatty streaks [8]: inhibit the production of arterial fatty streaks quite markedly
- endotoxin-induced shock (severe hypotension and death) [9]: considerable ameliorated
- anti-inflammatory effects [10]: dose-dependent anti-inflammatory effects

Compound: c1ccc2c(c1)[I+]c1ccccc1-2 [Diphenyleneiodonium, diphenylene iodonuim cloride]
- inhibition of the excess superoxide production induced by added NADPH (NADPH oxidase [2]; [11]): completely inhibit
- inhibition of the excess superoxide production induced by added NADPH (NADPH oxidase [5]; [11]): completely inhibit
- inhibition of the excess superoxide production induced by added NADPH (NADPH oxidase [7]; [11]): completely inhibit
